Assay results as given in patent US10858360B2, “Tricyclic gyrase inhibitors” (priority 2011, dated 2020).
Values after ≈ are worked out from the molar mass of the structure shown.

Legend:
[1] = test system: E. coli ATCC 25922; experiment: MIC, E. coli ATCC 25922; assay type: cell-based; conditions: Alamar Blue read after overnight incubation at 35° C.; for MIC: Escherichia coli, ATCC25922, E. coli; for MIC Ec: E. coli
[2] = test system: S. aureus ATCC 13709; experiment: MIC, S. aureus ATCC 13709 (Alamar Blue broth microdilution); assay type: cell-based; conditions: Alamar Blue read after overnight incubation at 35° C.; for MIC: Staphylococcus aureus, ATCC13709, S. aureus; for MIC Sa: S. aureus

CNc1cccc2c1[nH]c1nc(Oc3cncc(C#N)c3)nc(N3CC(N)C4(CC4)C3)c12 (centres unmarked) [3.43]
MIC [1]: 1 µg/mL (≈ 2.34 µM) | MIC [2]: ≤ 0.5 µg/mL

CNc1cccc2c1[nH]c1nc(Oc3cncc(C#N)c3)nc(N3C[C@@H](N)C4(CC4)C3)c12 [3.44]
MIC [1]: 16 µg/mL (≈ 37.5 µM) | MIC [2]: 8 µg/mL (≈ 18.8 µM)

CNc1cccc2c1[nH]c1nc(Oc3cncnc3)nc(N3CC(N)C4(CC4)C3)c12 (centres unmarked) [3.45]
MIC [1]: ≤ 0.5 µg/mL | MIC [2]: ≤ 0.5 µg/mL

CNc1cccc2c1[nH]c1nc(Oc3cncnc3)nc(N3C[C@@H](N)C4(CC4)C3)c12 [3.46]
MIC [1]: 4 µg/mL (≈ 9.94 µM) | MIC [2]: 2 µg/mL (≈ 4.97 µM)

CNc1cccc2c1[nH]c1nc(Oc3cncnc3)nc(N3C[C@H](N)C4(CC4)C3)c12 [3.47]
MIC [1]: ≤ 0.5 µg/mL | MIC [2]: ≤ 0.5 µg/mL

CNc1cccc2c1[nH]c1nc(Oc3cnc(C)nc3)nc(N3C[C@@H](N)C4(CC4)C3)c12 [3.48]
MIC [1]: 8 µg/mL (≈ 19.2 µM) | MIC [2]: 2 µg/mL (≈ 4.8 µM)

CNc1cccc2c1[nH]c1nc(Oc3cnc(C)nc3)nc(N3C[C@H](N)C4(CC4)C3)c12 [3.49]
MIC [1]: ≤ 0.5 µg/mL | MIC [2]: ≤ 0.5 µg/mL

CNc1cccc2c1[nH]c1nc(Oc3cncc(F)c3)nc(N3CC(N)C4(CC4)C3)c12 (centres unmarked) [3.50]
MIC [1]: 2 µg/mL (≈ 4.77 µM) | MIC [2]: ≤ 0.5 µg/mL

CNc1cccc2c1[nH]c1nc(Oc3cncc(F)c3)nc(N3C[C@@H](N)C4(CC4)C3)c12 [3.51]
MIC [1]: 32 µg/mL (≈ 76.3 µM) | MIC [2]: 8 µg/mL (≈ 19.1 µM)

CNc1cccc2c1[nH]c1nc(Oc3cnc4cccnc4c3)nc(N3CC(N)C4(CC4)C3)c12 (centres unmarked) [3.52]
MIC [1]: ≤ 0.5 µg/mL | MIC [2]: ≤ 0.5 µg/mL

CNc1cccc2c1[nH]c1nc(Oc3cnc(N)nc3)nc(Oc3cnc(N)nc3)c12 [3.53]
MIC [1]: > 64 µg/mL | MIC [2]: 8 µg/mL (≈ 19.2 µM)

CNc1cccc2c1[nH]c1nc(Oc3cncnc3)nc(N3CCN(Cc4ccccn4)CC3)c12 [3.54]
MIC [1]: > 32 µg/mL | MIC [2]: 8 µg/mL (≈ 17.1 µM)

CNc1cccc2c1[nH]c1nc(Oc3cncc(C#N)c3)nc(N3CCN(CCN)CC3)c12 [3.55]
MIC [1]: > 64 µg/mL | MIC [2]: 64 µg/mL (≈ 144 µM)

CNc1cccc2c1[nH]c1nc(Oc3cncnc3)nc(N3CCN(CCN)CC3)c12 [3.56]
MIC [1]: > 64 µg/mL | MIC [2]: > 64 µg/mL

CNc1cccc2c1[nH]c1nc(Oc3cncc(C#N)c3)nc(N3CCC(CN)C3)c12 (centres unmarked) [3.57]
MIC [1]: 8 µg/mL (≈ 19.3 µM) | MIC [2]: 1 µg/mL (≈ 2.41 µM)

CNc1cccc2c1[nH]c1nc(Oc3cncnc3)nc(N3CCC(CN)C3)c12 (centres unmarked) [3.58]
MIC [1]: > 64 µg/mL | MIC [2]: 32 µg/mL (≈ 82 µM)

CNc1cccc2c1[nH]c1nc(Oc3cncc(C#N)c3)nc(N3CCN(CCN4CCOCC4)CC3)c12 [3.59]
MIC [1]: > 64 µg/mL | MIC [2]: 4 µg/mL (≈ 7.79 µM)

CNc1cccc2c1[nH]c1nc(Oc3cncnc3)nc(N3CCN(CCN4CCOCC4)CC3)c12 [3.60]
MIC [1]: > 64 µg/mL | MIC [2]: 8 µg/mL (≈ 16.3 µM)

CNc1cccc2c1[nH]c1nc(Oc3cncnc3)nc(N3C[C@@H]4CNC[C@H]4C3)c12 [3.61]
MIC [1]: 16 µg/mL (≈ 39.8 µM) | MIC [2]: 4 µg/mL (≈ 9.94 µM)

CNc1cccc2c1[nH]c1nc(Oc3cncnc3)nc(N3C/C(=N\OC)[C@@H](N)C3)c12 [3.62]
MIC [1]: 8 µg/mL (≈ 19.1 µM) | MIC [2]: ≤ 0.5 µg/mL

CNc1cccc2c1[nH]c1nc(Oc3cncnc3)nc(N3CC(F)[C@@H](N)C3)c12 (some centres unmarked) [3.63]
MIC [1]: 8 µg/mL (≈ 20.3 µM) | MIC [2]: ≤ 0.5 µg/mL

CNc1cccc2c1[nH]c1nc(Oc3cncnc3)nc(N3CCC(N)CC3)c12 [3.64]
MIC [1]: 64 µg/mL (≈ 164 µM) | MIC [2]: 16 µg/mL (≈ 41 µM)

CNc1cccc2c1[nH]c1nc(Oc3cncnc3)nc(N3CCC4(CNC4)C3)c12 [3.65]
MIC [1]: 64 µg/mL (≈ 159 µM) | MIC [2]: 8 µg/mL (≈ 19.9 µM)

CNc1cccc2c1[nH]c1nc(Oc3cncc(F)c3)nc(N3CCC4(CNC4)C3)c12 [3.66]
MIC [1]: > 32 µg/mL | MIC [2]: 8 µg/mL (≈ 19.1 µM)

CNc1cccc2c1[nH]c1nc(Oc3cncnc3)nc(N3CC4(CCNC4)C3)c12 [3.67]
MIC [1]: 64 µg/mL (≈ 159 µM) | MIC [2]: 16 µg/mL (≈ 39.8 µM)

CNc1cc(F)cc2c1[nH]c1nc(Oc3cncnc3)nc(N3CC4C(N)C4C3)c12 (centres unmarked) [4.001]
MIC Ec [1]: ≤0.5 µg/mL | MIC Sa [2]: ≤0.5 µg/mL

CNc1cc(F)cc2c1[nH]c1nc(Oc3cncnc3)nc(N3CC(N)C4(CC4)C3)c12 (centres unmarked) [4.002]
MIC [1]: ≤ 0.5 µg/mL | MIC [2]: ≤ 0.5 µg/mL

CNc1cc(F)cc2c1[nH]c1nc(Oc3cncnc3)nc(N3CCC4(CC4N)C3)c12 (centres unmarked) [4.003]
MIC [1]: ≤ 0.5 µg/mL | MIC [2]: ≤ 0.5 µg/mL

CNc1cc(F)cc2c1[nH]c1nc(Oc3cncnc3)nc(N3CC4C(CN)C4C3)c12 (centres unmarked) [4.004]
MIC [1]: 2 µg/mL (≈ 4.76 µM) | MIC [2]: ≤ 0.5 µg/mL

CNc1cc(F)cc2c1[nH]c1nc(Oc3cncnc3)nc(N3CC4CC4(N)C3)c12 (centres unmarked) [4.005]
MIC [1]: ≤ 0.5 µg/mL | MIC [2]: ≤ 0.5 µg/mL

CNc1cc(F)cc2c1[nH]c1nc(Oc3cncnc3)nc(N3C[C@@H](N)C4(CC4)C3)c12 [4.006]
MIC [1]: 1 µg/mL (≈ 2.38 µM) | MIC [2]: ≤ 0.5 µg/mL

CNc1cc(F)cc2c1[nH]c1nc(Oc3cncnc3)nc(N3CCC(N)C3)c12 (centres unmarked) [4.007]
MIC Ec [1]: ≤0.5 µg/mL | MIC Sa [2]: ≤0.5 µg/mL

CNc1cc(F)cc2c1[nH]c1nc(Oc3cncnc3)nc(N3CC4CNC4C3)c12 (centres unmarked) [4.008]
MIC [1]: ≤ 0.5 µg/mL | MIC [2]: ≤ 0.5 µg/mL

CNc1cc(F)cc2c1[nH]c1nc(Oc3cncnc3)nc(N3C[C@@H]4[C@H](C3)[C@@]4(N)C(N)=O)c12 [4.009]
MIC [1]: > 64 µg/mL | MIC [2]: ≤ 0.5 µg/mL

CNc1cc(F)cc2c1[nH]c1nc(Oc3cncnc3)nc(N3CC4C(N)C4C3)c12 (centres unmarked) [4.010]
MIC Ec [1]: ≤0.5 µg/mL | MIC Sa [2]: ≤0.5 µg/mL

CNc1cc(F)cc2c1[nH]c1nc(Oc3cncnc3)nc(N3C[C@H](N)C4(CC4)C3)c12 [4.011]
MIC [1]: ≤ 0.5 µg/mL | MIC [2]: ≤ 0.5 µg/mL

CNc1cc(F)cc2c1[nH]c1nc(Oc3cncnc3)nc(N3CC[C@]4(C[C@@H]4N)C3)c12 [4.013]
MIC [1]: ≤ 0.5 µg/mL | MIC [2]: ≤ 0.5 µg/mL

CNc1cc(F)cc2c1[nH]c1nc(Oc3cncnc3)nc(N3CC[C@@]4(C[C@H]4N)C3)c12 [4.014]
MIC [1]: 1 µg/mL (≈ 2.38 µM) | MIC [2]: ≤ 0.5 µg/mL

CNc1cc(F)cc2c1[nH]c1nc(Oc3cncnc3)nc(N3CC4CNC(C4)C3)c12 (centres unmarked) [4.015]
MIC [1]: 1 µg/mL (≈ 2.38 µM) | MIC [2]: ≤ 0.5 µg/mL

CNc1cc(F)cc2c1[nH]c1nc(Oc3cncnc3)nc(N3CC4CCC(N)C4C3)c12 (centres unmarked) [4.016]
MIC [1]: 1 µg/mL (≈ 2.3 µM) | MIC [2]: ≤ 0.5 µg/mL

CNc1cc(F)cc2c1[nH]c1nc(Oc3cncnc3)nc(N3CCC(C4(N)CC4)C3)c12 (centres unmarked) [4.017]
MIC [1]: ≤ 0.5 µg/mL | MIC [2]: ≤ 0.5 µg/mL

CNc1cc(F)cc2c1[nH]c1nc(Oc3cncnc3)nc(N3CCC4CNC4C3)c12 (centres unmarked) [4.018]
MIC [1]: ≤ 0.5 µg/mL | MIC [2]: ≤ 0.5 µg/mL

CNc1cc(F)cc2c1[nH]c1nc(Oc3cncnc3)nc(N3C4CCC3C(N)C4)c12 (centres unmarked) [4.019]
MIC [1]: 16 µg/mL (≈ 38.1 µM) | MIC [2]: 2 µg/mL (≈ 4.76 µM)

CNc1cc(F)cc2c1[nH]c1nc(Oc3cncnc3)nc(N3C[C@H]4CCN[C@H]4C3)c12 [4.020]
MIC [1]: ≤ 0.5 µg/mL | MIC [2]: ≤ 0.5 µg/mL

CNc1cc(F)cc2c1[nH]c1nc(Oc3cncnc3)nc(N3C[C@H]4CC[C@@H](CN)[C@H]4C3)c12 [4.021]
MIC [1]: 2 µg/mL (≈ 4.46 µM) | MIC [2]: ≤ 0.5 µg/mL

CNc1cc(F)cc2c1[nH]c1nc(Oc3cncnc3)nc(N3CC4C[C@@H]3CN4)c12 [4.022]
MIC [1]: 16 µg/mL (≈ 39.4 µM) | MIC [2]: 8 µg/mL (≈ 19.7 µM)

CNc1cc(F)cc2c1[nH]c1nc(Oc3cncnc3)nc(N3CC(C)C(CN)C3)c12 (centres unmarked) [4.023]
MIC Ec [1]: 1 µg/mL (≈ 2.37 µM) | MIC Sa [2]: ≤0.5 µg/mL

CNc1cc(F)cc2c1[nH]c1nc(Oc3cncnc3)nc(N3CCCC(C)(N)C3)c12 (centres unmarked) [4.024]
MIC [1]: 2 µg/mL (≈ 4.73 µM) | MIC [2]: ≤ 0.5 µg/mL

CNc1cc(F)cc2c1[nH]c1nc(Oc3cncnc3)nc(N3C4CCC3CC(N)C4)c12 (centres unmarked) [4.025]
MIC [1]: 2 µg/mL (≈ 4.6 µM) | MIC [2]: ≤ 0.5 µg/mL

CNc1cc(F)cc2c1[nH]c1nc(Oc3cncnc3)nc(N3CC4CC(N)C4C3)c12 (centres unmarked) [4.026]
MIC [1]: ≤ 0.5 µg/mL | MIC [2]: ≤ 0.5 µg/mL

CNc1cc(F)cc2c1[nH]c1nc(Oc3cncnc3)nc(N3CC4CC4(CN)C3)c12 (centres unmarked) [4.027]
MIC [1]: 1 µg/mL (≈ 2.38 µM) | MIC [2]: ≤ 0.5 µg/mL

CNc1cc(F)cc2c1[nH]c1nc(Oc3cncnc3)nc(N3CC4C[C@@H](N)C4C3)c12 (some centres unmarked) [4.028]
MIC [1]: ≤ 0.5 µg/mL | MIC [2]: ≤ 0.5 µg/mL

CNc1cc(F)cc2c1[nH]c1nc(Oc3cncnc3)nc(N3C[C@H](N)C[C@H]3C)c12 [4.029]
MIC [1]: 16 µg/mL (≈ 39.2 µM) | MIC [2]: 4 µg/mL (≈ 9.79 µM)

CNc1cc(F)cc2c1[nH]c1nc(Oc3cncnc3)nc(N3CC4CC3C4CN)c12 (centres unmarked) [4.030]
MIC Ec [1]: 16 µg/mL (≈ 38.1 µM) | MIC Sa [2]: 2 µg/mL (≈ 4.76 µM)

CNc1cc(F)cc2c1[nH]c1nc(Oc3cncnc3)ncc12 [4.031]
MIC [1]: > 16 µg/mL | MIC [2]: 2 µg/mL (≈ 6.45 µM)

CNc1cc(F)cc2c1[nH]c1nc(Oc3cncnc3)nc(N3CC4CCC(N)C3C4)c12 (centres unmarked) [4.032]
MIC [1]: 2 µg/mL (≈ 4.6 µM) | MIC [2]: ≤ 0.5 µg/mL

CNc1cc(F)cc2c1[nH]c1nc(Oc3cncnc3)nc(N3CCC4(CCNC4)C3)c12 (centres unmarked) [4.033]
MIC [1]: 4 µg/mL (≈ 9.21 µM) | MIC [2]: ≤ 0.5 µg/mL

CNc1cc(F)cc2c1[nH]c1nc(Oc3cncnc3)nc(N3C[C@H]4C[C@@H]3C[C@H]4N)c12 [4.034]
MIC [1]: ≤ 0.5 µg/mL | MIC [2]: ≤ 0.5 µg/mL
